Test results reported in US20260049068A1, “Substituted Tetrazolyl Compounds Useful as T Cell Activators” (BRISTOL-MYERS SQUIBB COMPANY, priority 2022, published 2026).

What was measured:
DGKα-YFP in Jurkat cells = DGKα-YFP in Jurkat cells (Homo sapiens (Human), UniProt P23743); assay: In vitro DGKα translocation assay; assay type: cell-based; conditions: 1 hour at 37° C., top concentration 10 μM, read-out: DGKalpha Translocation EC50
Description: Jurkat cells were transduced with lentiviral constructs overexpressing DGKα-YFP (N-terminal tagged), selected by puromycin, and were FACs sorted to establish stable lines expressing each isoform (Jurkat-DGKα-YFP=BXA-212700-01-001, Jurkat-DGKz-YFP=BXA-212701-01-001). Cell lines were maintained in growth media (RPMI supplemented with 10% FBS and pen/strep). All translocation assays were run in assay media (RPMI supplemented with 10% FBS and no antibiotics).
For translocation assays cells were plated onto Perkin Elmer CellCarrier-384 Ultra Microplates (Perkin Elmer cat #6057500) at a density of 30,000 cells/well, in a volume of 40 μL of assay media. Compounds were then transferred to the cells by an Echo Acoustic Liquid Handler (Echo 655). […] Treated cells were then incubated at 37° C. for 1 hour. Cells were then fixed with 4% formaldehyde (Thermo cat #28906) for 15 minutes, centrifuged briefly to increase cell retention (250 rpm for 5 minutes), and then washed 3× with 50 μL PBS. Cells were then stained with Hoechst, and washed 2× with 50 ul PBS. Next, 50 μL PBS was added to each well, plates were sealed, and plates were imaged on an Opera Phenix High Content screening system. Imaging was done with the 40× water objective. The YFP channel was set at 100% power for […], 10 regions/well were imaged and analyzed. Data analysis was done with Columbus Image Analysis software (Perk-in Elmer).

Full length human DGKα = Full length human DGKα (Homo sapiens (Human), UniProt P23743);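 further: ADP-Glo luminescence assay of ADP formed by 5 nM full-length DGKα on extruded PS/DAG/PC liposomes with 150 µM ATP, 1 h reaction, 11-point inhibitor titration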
Sequence of Full length human DGKα (P23743 other isoform, or with tags, fused parts or gaps): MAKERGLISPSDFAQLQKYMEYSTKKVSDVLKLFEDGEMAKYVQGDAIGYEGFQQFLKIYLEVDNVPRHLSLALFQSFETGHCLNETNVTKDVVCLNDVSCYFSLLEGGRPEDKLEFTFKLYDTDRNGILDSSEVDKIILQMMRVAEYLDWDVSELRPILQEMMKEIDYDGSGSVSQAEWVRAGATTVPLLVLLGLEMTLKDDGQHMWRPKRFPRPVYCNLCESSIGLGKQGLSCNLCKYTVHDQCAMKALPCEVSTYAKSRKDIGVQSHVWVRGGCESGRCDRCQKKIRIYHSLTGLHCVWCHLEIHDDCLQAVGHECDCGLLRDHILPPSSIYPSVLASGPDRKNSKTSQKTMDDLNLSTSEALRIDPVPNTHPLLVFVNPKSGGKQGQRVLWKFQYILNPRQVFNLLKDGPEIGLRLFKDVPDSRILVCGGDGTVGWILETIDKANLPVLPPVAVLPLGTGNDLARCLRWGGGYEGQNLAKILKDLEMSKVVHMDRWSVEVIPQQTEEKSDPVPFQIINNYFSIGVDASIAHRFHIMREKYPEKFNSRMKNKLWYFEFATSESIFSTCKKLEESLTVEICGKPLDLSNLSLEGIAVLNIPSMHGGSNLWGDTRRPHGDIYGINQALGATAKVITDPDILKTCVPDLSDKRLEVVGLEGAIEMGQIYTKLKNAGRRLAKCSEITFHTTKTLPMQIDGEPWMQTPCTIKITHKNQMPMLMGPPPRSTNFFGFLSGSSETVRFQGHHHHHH
Procedure: The DGKα (Full Length and Near Full Length) ADP Glo assays were performed using an extruded liposome prep at either 5% DAG or 10% DAG. The Enzymatic reactions were carried out in 50 mM MOPS pH 7.5, 100 mM NaCl, 10 mM MgCl2, 1 μM CaCl2, and 1 mM DTT (assay buffer). The lipid substrate concentrations were 1.9 mM PS, either 0.25 mM DAG (5% liposome prep) or 0.5 mM DAG (10% liposome prep), and 2.7 mM PC for the extruded liposome reactions. The reactions were carried out at 150 μM ATP. The enzyme concentrations for the DGKα(Near Full Length) and DGKα(FL) were 5 nM.
The compound inhibition studies were carried out as follows: 25 nL droplets of each test compound (11 point, 3-fold dilution series for each compound) solubilized in DMSO were transferred to wells of a white 1536 well plate (Corning 3725). A 5 mL enzyme/substrate (substrate being the 5× or 10× liposome preparation) solution at 2× final reaction concentrations was prepared by combining 5 ml of the extruded liposome preparation with 10 nM (2× final) DGKα(Near Full Length) or DGKα(Full Length) prepared as described below) and incubated at room temperature for 10 minutes. Next, 1 μL of the 2× enzyme/substrate solution was added to wells containing the test compound and reactions were initiated with the addition of 1 μL 300 uM ATP. Substrate only was added to DMSO only wells for background measurements. The reactions were allowed to proceed for 1 hr, after which 2 μL Glo Reagent (Promega V9101) was added and incubated for 40 minutes. Next, 4 μL Kinase Detection Reagent was added and incubated for 30 minutes. Luminescence was recorded using an EnVision microplate reader. […] The compounds were evaluated at 11 concentrations to determine IC50.

[1] = target: Near full length human DGKα(S9-S727) (Homo sapiens (Human), UniProt P23743); assay: DGKα (Near Full Length) ADP Glo assay; assay type: biochemical; conditions: extruded liposomes 5% or 10% DAG, 150 μM ATP, 5 nM enzyme; read-out: Near Full Length DGKalpha ADPGLO IC50
Sequence of Near full length human DGKα(S9-S727) (P23743 9-727): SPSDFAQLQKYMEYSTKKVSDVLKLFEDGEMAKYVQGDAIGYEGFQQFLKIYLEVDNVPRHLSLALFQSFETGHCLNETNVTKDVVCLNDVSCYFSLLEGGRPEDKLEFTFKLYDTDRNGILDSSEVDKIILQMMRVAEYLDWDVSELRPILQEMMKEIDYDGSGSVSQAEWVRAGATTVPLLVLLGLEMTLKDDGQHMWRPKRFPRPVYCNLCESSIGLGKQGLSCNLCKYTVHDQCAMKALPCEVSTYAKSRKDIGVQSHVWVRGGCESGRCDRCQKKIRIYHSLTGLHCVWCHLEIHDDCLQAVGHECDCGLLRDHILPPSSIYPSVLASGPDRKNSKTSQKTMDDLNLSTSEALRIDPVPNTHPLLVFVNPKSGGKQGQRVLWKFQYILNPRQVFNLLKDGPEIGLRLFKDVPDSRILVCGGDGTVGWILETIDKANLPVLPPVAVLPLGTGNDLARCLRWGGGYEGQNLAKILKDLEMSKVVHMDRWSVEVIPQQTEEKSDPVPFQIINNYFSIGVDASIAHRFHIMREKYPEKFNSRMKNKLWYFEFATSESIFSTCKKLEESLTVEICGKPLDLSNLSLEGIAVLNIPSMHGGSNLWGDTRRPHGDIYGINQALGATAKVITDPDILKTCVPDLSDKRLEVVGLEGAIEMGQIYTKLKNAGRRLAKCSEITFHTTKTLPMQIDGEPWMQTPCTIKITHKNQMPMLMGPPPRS
Procedure: The reactions were carried out at 150 μM ATP.
Luminescence was recorded using an EnVision microplate reader.

Sequence of DGKα-YFP in Jurkat cells (P23743 whole entry, canonical isoform): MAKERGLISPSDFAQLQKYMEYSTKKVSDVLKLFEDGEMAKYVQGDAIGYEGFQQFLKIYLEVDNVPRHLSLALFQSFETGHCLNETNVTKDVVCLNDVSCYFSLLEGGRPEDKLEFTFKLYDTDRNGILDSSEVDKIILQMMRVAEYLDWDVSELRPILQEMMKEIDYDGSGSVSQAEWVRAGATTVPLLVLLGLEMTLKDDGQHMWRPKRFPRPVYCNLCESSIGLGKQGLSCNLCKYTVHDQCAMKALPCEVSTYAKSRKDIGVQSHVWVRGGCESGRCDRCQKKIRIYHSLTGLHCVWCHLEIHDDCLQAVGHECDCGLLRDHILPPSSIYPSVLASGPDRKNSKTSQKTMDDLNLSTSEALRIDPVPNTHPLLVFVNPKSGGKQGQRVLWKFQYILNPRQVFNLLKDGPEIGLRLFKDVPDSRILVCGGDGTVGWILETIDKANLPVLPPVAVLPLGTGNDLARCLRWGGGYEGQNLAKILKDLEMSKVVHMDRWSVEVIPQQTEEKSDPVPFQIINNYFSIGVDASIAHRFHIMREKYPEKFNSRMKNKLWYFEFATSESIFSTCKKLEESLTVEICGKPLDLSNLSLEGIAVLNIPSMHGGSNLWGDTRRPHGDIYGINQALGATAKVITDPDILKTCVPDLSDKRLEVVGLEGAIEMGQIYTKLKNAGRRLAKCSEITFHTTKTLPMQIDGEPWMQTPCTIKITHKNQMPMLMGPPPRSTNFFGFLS

Row | SMILES | EC50 (DGKα-YFP in Jurkat cells) | IC50 (Full length human DGKα) | IC50 [1]
1 | CC1CCC(N(C)Cc2nnnn2-c2cccc([N+](=O)[O-])c2)CC1 (stereo not shown) [Example 2, N,4-dimethyl-N-((1-(3-nitrophenyl)-1H-tetrazol-5-yl)methyl)cyclohexan-1-amine] | 300 nM |  | 
2 | CN(Cc1nnnn1-c1ccc(C(F)(F)F)c(C#N)c1)C1CCCCC1 [Example 4, 5-(5-((cyclohexyl(methyl)amino)methyl)-1H-tetrazol-1-yl)-2-(trifluoromethyl)benzonitrile] | 820 nM | 27 nM | 280 nM
3 | CCCCN(Cc1nnnn1-c1ccc(Cl)c(C#N)c1)C1CCCCC1 [Example 5, 5-(5-((butyl(cyclohexyl)amino)methyl)-1H-tetrazol-1-yl)-2-chlorobenzonitrile] | 1200 nM | 1100 nM | 1400 nM
4 | C=CCN(Cc1nnnn1-c1ccc(Cl)c(C#N)c1)C1CCCCC1 [Example 6, 5-(5-((allyl(cyclohexyl)amino)methyl)-1H-tetrazol-1-yl)-2-chlorobenzonitrile] | 190 nM | 110 nM | 100 nM
5 | N#Cc1cc(-n2nnnc2CN(CCO)C2CCCCC2)ccc1Cl [Example 7, 2-chloro-5-(5-((cyclohexyl(2-hydroxyethyl)amino)methyl)-1H-tetrazol-1-yl)benzonitrile] | > 10000 nM | 4700 nM | 3400 nM
6 | CCCN(Cc1nnnn1-c1ccc(Cl)c(C#N)c1)C1CCCCC1 [Example 8, 2-chloro-5-(5-((cyclohexyl(propyl)amino)methyl)-1H-tetrazol-1-yl)benzonitrile] | 350 nM | 1500 nM | 2100 nM
7 | CC(C)CN(C)Cc1nnnn1-c1ccc(Cl)c(C#N)c1 [Example 9, 2-chloro-5-(5-((isobutyl(methyl)amino)methyl)-1H-tetrazol-1-yl)benzonitrile] | 1200 nM | 5300 nM | 3200 nM
8 | N#Cc1cc(-n2nnnc2CN(CC2CC2)C2CCCCC2)ccc1Cl [Example 10, 2-chloro-5-(5-((cyclohexyl(cyclopropylmethyl)amino)methyl)-1H-tetrazol-1-yl)benzonitrile] | 630 nM | 250 nM | 240 nM
9 | CC(C)N(C)Cc1nnnn1-c1ccc(Cl)c(C#N)c1 [Example 11, 2-chloro-5-(5-((isopropyl(methyl)amino)methyl)-1H-tetrazol-1-yl)benzonitrile] | > 10000 nM | 8800 nM | 8600 nM
10 | CC(C)N(Cc1nnnn1-c1ccc(Cl)c(C#N)c1)C1CCCCC1 [Example 12, 2-chloro-5-(5-((cyclohexyl(isopropyl)amino)methyl)-1H-tetrazol-1-yl)benzonitrile] | 1700 nM | 7900 nM | 11000 nM
11 | CCN(Cc1nnnn1-c1ccc(Cl)c(C#N)c1)C1CCCCC1 [Example 13, 2-chloro-5-(5-((cyclohexyl(ethyl)amino)methyl)-1H-tetrazol-1-yl)benzonitrile] | 120 nM | 90 nM | 80 nM
12 | CN(Cc1nnnn1-c1ccc(Cl)c(C#N)n1)C1CCCCC1 [Example 14, 3-chloro-6-(5-((cyclohexyl(methyl)amino)methyl)-1H-tetrazol-1-yl)picolinonitrile] | 1800 nM | 2000 nM | 1100 nM
13 | N#Cc1nc(-n2nnnc2CN(CC2CC2)C2CCCCC2)ccc1Cl [Example 15, 3-chloro-6-(5-((cyclohexyl (cyclopropylmethyl)amino)methyl)-1H-tetrazol-1-yl) picolinonitrile] | 2100 nM | 3100 nM | 4300 nM
14 | CCN(Cc1nnnn1-c1ccc(Cl)c(C#N)n1)C1CCCCC1 [Example 16, 3-chloro-6-(5-((cyclohexyl(ethyl)amino)methyl)-1H-tetrazol-1-yl)picolinonitrile] | > 10000 nM | 2700 nM | 2600 nM
15 | C=CCN(Cc1nnnn1-c1ccc(Cl)c(C#N)n1)C1CCCCC1 [Example 17, 6-(5-((allyl (cyclohexyl)amino)methyl)-1H-tetrazol-1-yl)-3-chloropicolinonitrile] | 470 nM |  | 
16 | CN(Cc1nnnn1-c1cccc(C(F)(F)F)c1)C1CCCCC1 [Example 18, N-methyl-N-((1-(3-(trifluoromethyl)phenyl)-1H-tetrazol-5-yl)methyl) cyclohexanamine] | > 5000 nM | 9700 nM | 11000 nM
17 | CN(Cc1nnnn1-c1cccc(F)c1)C1CCCCC1 [Example 19, N-((1-(3-fluorophenyl)-1H-tetrazol-5-yl)methyl)-N-methylcyclohexanamine] | > 5000 nM | 5200 nM | 5800 nM
18 | CN(Cc1nnnn1-c1ccc(F)c(C#N)c1)C1CCCCC1 [Example 21, 5-(5-((cyclohexyl (methyl)amino)methyl)-1H-tetrazol-1-yl)-2-fluorobenzonitrile] | 1200 nM | 3700 nM | 3100 nM
19 | CN(Cc1nnnn1-c1ccc(C(F)(F)F)nc1)C1CCCCC1 [Example 23, N-methyl-N-((1-(6-(trifluormethyl)pyridin-3-yl)-1H-tetrazol-5-yl)methyl) cyclohexanamine] | > 5000 nM | 6500 nM | 3600 nM
20 | COc1ccc(-n2nnnc2CN(C)C2CCCCC2)cc1C#N [Example 24, 5-(5-((cyclohexyl(methyl)amino)methyl)-1H-tetrazol-1-yl)-2-methoxybenzonitrile] | 1700 nM | 900 nM | 860 nM
21 | Cc1ccc(-n2nnnc2CN(C)C2CCCCC2)cc1C#N [Example 25, 5-(5-((cyclohexyl(methyl)amino)methyl)-1H-tetrazol-1-yl)-2-methylbenzonitrile] | 350 nM | 140 nM | 410 nM
22 | CN(Cc1nnnn1-c1cc(C#N)cc([N+](=O)[O-])c1)C1CCCCC1 [Example 27, 3-(5-((cyclohexyl(methyl)amino)methyl)-1H-tetrazol-1-yl)-5-nitrobenzonitrile] | 490 nM |  | 
23 | CN(Cc1nnnn1-c1ccc(Cl)cc1)C1CCCCC1 [Example 29, N-((1-(4-chlorophenyl)-1H-tetrazol-5-yl)methyl)-N-methylcyclohexanamine] | 570 nM | 3500 nM | 1700 nM
24 | CN(Cc1nnnn1-c1ccc(Cl)cc1C#N)C1CCCCC1 [Example 30, 5-chloro-2-(5-((cyclohexyl(methyl)amino)methyl)-1H-tetrazol-1-yl)benzonitrile] | > 10000 nM |  | 
25 | CCOC(=O)C1CCC(N(Cc2nnnn2-c2ccc(Cl)c(C#N)n2)C2CC2)CC1 (stereo not shown) [Example 56, ethyl 4-(((1-(5-chloro-6-cyanopyridin-2-yl)-1H-tetrazol-5-yl)methyl)(cyclopropyl)amino) cyclohexane-1-carboxylate] |  | 11000 nM | 
26 | C[C@]1(O)CC[C@@H](N(Cc2nnnn2-c2ccc(Cl)c(C#N)n2)C2CC2)CC1 [Example 59, 3-chloro-6-(5-((cyclopropyl((1s,4s)-4-hydroxy-4-methylcyclohexyl)amino)methyl)-1H-tetrazol-1-yl)picolinonitrile] |  | 180000 nM | 
27 | CC(C)N(C)Cc1nnnn1-c1ccc(Cl)c(C#N)n1 [Example 60, 3-chloro-6-(5-((isopropyl(methyl)amino)methyl)-1H-tetrazol-1-yl)picolinonitrile] |  | 67000 nM | 
28 | CC(C)CN(C)Cc1nnnn1-c1ccc(Cl)c(C#N)n1 [Example 61, 3-chloro-6-(5-((isobutyl(methyl)amino)methyl)-1H-tetrazol-1-yl)picolinonitrile] |  | 24000 nM | 
29 | N#Cc1nc(-n2nnnc2CN(CCO)C2CCCCC2)ccc1Cl [Example 62, 3-chloro-6-(5-((cyclohexyl(2-hydroxyethyl)amino)methyl)-1H-tetrazol-1-v) picolinonitrile] |  | 110000 nM | 
30 | CCCCN(Cc1nnnn1-c1ccc(Cl)c(C#N)n1)C1CCCCC1 [Example 63, 6-(5-((butyl(cyclohexyl)amino)methyl)-1H-tetrazol-1-yl)-3-chloropicolinonitrile] |  | 15000 nM | 
